One experiment concerns the target T1, KRAS G12D (Homo sapiens, UniProt P01116, G12D).
T1 construct: host or cells: AsPC-1 human pancreatic cancer cells
Nature of the experiment: Evaluation of KRAS degradation activity on AsPC-1 by Cell ELISA (Test Example 1). It is filed as cell-based. Particulars: degradation rate of KRAS G12D at 1 μM in AsPC-1 cells, cultured overnight, corrected with β-actin. The protocol:
Test Example 1: Evaluation of KRAS Degradation Activity on Human G12D Mutant KRAS-Positive Pancreatic Cancer Line AsPC-1 (CRL-1682; ATCC)
The KRAS degradation activity of test compounds was evaluated by measuring the expression levels of KRAS G12D by Cell ELISA.
AsPC-1 cells were seeded at 20 μL per well on 384-well plates (from Greiner bio-one) to give 2.0×10^4 cells per well. As for the cell culture conditions, RPMI 1640 (from Sigma-Aldrich) medium containing 10% fetal bovine serum (from Cytiva) was used in the presence of 5% CO2 at 37° C.
The next day, the test compounds (10 points having final concentrations in the range of 10 μM to 0.3 nM) and DMSO (from FUJIFILM Wako Pure Chemical Corporation), which was the solvent for the test compounds, as a negative control were diluted 500-fold with a fresh medium and were added at 20 μL per well. The cells were cultured overnight.
The next day, the culture supernatant was removed, and 4% paraformaldehyde phosphate buffer (from FUJIFILM Wako Pure Chemical Corporation) was added at 20 μL per well. The plates were allowed to stand for 30 minutes at room temperature to thus immobilize the cells. Then, the supernatant was removed, and 0.1% Triton X-100 (from Amersham Biosciences)-containing Phosphate buffered saline (PBS; from FUJIFILM Wako Pure Chemical Corporation) was added at 20 μL per well. After allowing to stand for 10 minutes at room temperature, the supernatant was removed. PBS was added at 25 μL per well, and the supernatant was removed to thus wash each well. The washing was performed twice in total. Next, the supernatant was removed, and 0.5% sodium dodecyl sulfate (SDS; from Invitrogen)-containing PBS was added at 20 μL per well. After allowing to stand at room temperature for 10 minutes, the supernatant was removed by a centrifugal operation (using a centrifugal dehydrator machine, the supernatant was removed by the same method hereinafter). PBS was added at 25 μL per well, and the supernatant was removed to thus wash each well. The washing was performed twice in total. The supernatant was removed, and blocking solution (Intercept Blocking Buffer; from Li-COR Biosciences) was added at 20 μL per well. After allowing to stand for 30 minutes at room temperature, the supernatant was removed, and a solution obtained by diluting anti-β-actin antibody (Anti-beta Actin antibody [mAbcam 8226]-Loading Control; from abcam) 1,000-fold with blocking solution and a solution obtained by diluting anti-Ras (G12D Mutant Specific) antibody (Ras (G12D Mutant Specific) (D8H7) Rabbit mAb #14429; from Cell Signaling Technology) and anti-β-actin antibody (from abcam) 1,000-fold with blocking solution were respectively added to positive control wells and the other wells at 15 μL per well as a primary antibody. The plates were allowed to stand overnight at 4° C.
The next day, the supernatant was removed. PBS was added at 25 μL per well, and the supernatant was removed to thus wash each well. The washing was performed twice in total. The supernatant was removed, and a solution obtained by diluting Donkey anti-Mouse IgG H&L (IRDye 680RD) (from Li-COR Biosciences) and Goat anti-Rabbit IgG H&L (IRDye 800CW) (from Li-COR Biosciences) 1,000-fold with blocking solution was added at 15 μL per well as a secondary antibody. After allowing to stand for 1 hour at room temperature, the supernatant was removed. PBS was added at 25 μL per well, and the supernatant was removed to thus wash each well. The washing was performed twice in total. After removing the supernatant, the plates were dried with air at room temperature for 2 hours or more, and the 700 nm and 800 nm fluorescent signals were measured with Aerius (from Li-COR Biosciences). […]

Experiment [1] has as its system human G12D mutant KRAS-positive pancreatic cancer line AsPC-1. Nature of the experiment: Non-anchorage-dependent cell growth inhibitory effect, spheroid 3D cell culture (Test Example 2). It is filed as cell-based. Particulars: AsPC-1 spheroid 3D culture, 6 days, CellTiter Glo 2.0. As for the experimental part: Test Example 2: Evaluation of Non-Anchorage-Dependent Cell Growth Inhibitory Effect on Human G12D Mutant KRAS-Positive Pancreatic Cancer Line AsPC-1
The non-anchorage-dependent cell growth inhibitory effect of test compounds was evaluated by spheroid 3D cell culture.
AsPC-1 cells were seeded on low-cell-adhesive round bottom 384-well plates (PrimeSurface: from Sumitomo Bakelite) at 36 μL/well to give 5×10^2 cells per well. As for the cell culture conditions, RPMI 1640 medium containing 10% fetal bovine serum was used in the presence of 5% CO2 at 37° C.
The next day, the test compounds (6 points having final concentrations in the range of 10 μM to 30 nM) and DMSO, which was the solvent for the test compounds, as a negative control were diluted 100-fold with a fresh medium and were added at 4 μL per well. After culturing in the presence of 5% CO2 at 37° C. for 6 days, CellTiter Glo 2.0 (from Promega) was added at 20 μL per well. After stirring with a plate mixer (from FINEPCR) at normal temperature for 1 hour, the luminescent signals were measured with ARVO X3 (from PerkinElmer).
With the signaling value in treatment with DMSO taken as 100% and with the signaling value in the medium alone without cells taken as 0%, the 50% inhibitory concentration values (IC50) were calculated by Sigmoid-Emax nonlinear regression analysis.

In the case of `Cc1c(F)cc2[nH]ncc2c1-c1c(C2CC2)cc2c(N3C[C@@H]4C[C@H]3CN4)nc(OC3CCOCC3)nc2c1OCc1ccc(C(=O)N2CCN(C(=O)c3ccc4c(c3)CN(C(=O)c3cc(C(C)C)c(O)cc3O)C4)C[C@@H]2C)cc1` (atropisomer, axis not shown) [Example 2], on KRAS G12D, the “% degradation” value was 44%. The midpoint of inhibition in experiment [1] (Homo sapiens, ASPC1, 144 h), the IC50, lay at 1.9 µM.

In the case of `Cc1c(F)cc2[nH]ncc2c1-c1c(C2CC2)cc2c(N3C[C@@H]4C[C@H]3CN4)nc(OC3CCOCC3)nc2c1OCc1ccc(C(=O)N2CCN(C(=O)c3ccc4c(c3)CN(C(=O)c3cc(C(C)C)c(O)cc3O)C4)C[C@H]2C)cc1` (atropisomer, axis not shown) [Example 3], the “% degradation” value at KRAS G12D is recorded as 46%. In experiment [1] (Homo sapiens, ASPC1, 144 h), this compound showed an IC50 of 2.8 µM.

For the compound `Cc1c(F)cc2[nH]ncc2c1-c1c(C2CC2)cc2c(N3C[C@@H]4C[C@H]3CN4)nc(OC3CCOCC3)nc2c1OCc1ccc(C(=O)N2C[C@H]3CN(Cc4ccc5c(c4)CN(C(=O)c4cc(C(C)C)c(O)cc4O)C5)C[C@H]3C2)cc1` (atropisomer, axis not shown) [Example 4], the “% degradation” value on KRAS G12D amounted to 15%. Moreover, in experiment [1] (Homo sapiens, ASPC1, 144 h), 5.1 µM corresponded to half-maximal inhibition (IC50).

In the case of `Cc1c(F)cc2[nH]ncc2c1-c1c(C2CC2)cc2c(N3C[C@@H]4C[C@H]3CN4)nc(OC3CCOCC3)nc2c1OCc1ccc(C(=O)N2CCN(Cc3ccc4c(c3)CN(C(=O)c3cc(C(C)C)c(O)cc3O)C4)CC2)cc1` (atropisomer, axis not shown) [Example 6], the “% degradation” value on KRAS G12D was 25%. Besides, the IC50 in experiment [1] (Homo sapiens, ASPC1, 144 h) was found to be 3.6 µM.

`Cc1c(F)cc2[nH]ncc2c1-c1c(C2CC2)cc2c(N3C[C@@H]4C[C@H]3CN4)nc(OC3CCOCC3)nc2c1OCc1ccc(C(=O)N2CCCN(Cc3ccc4c(c3)CN(C(=O)c3cc(C(C)C)c(O)cc3O)C4)CC2)cc1` (atropisomer, axis not shown) [Example 7]: the “% degradation” value on KRAS G12D was determined as 20%.

Regarding `Cc1c(F)cc2[nH]ncc2c1-c1c(C2CC2)cc2c(N3C[C@@H]4C[C@H]3CN4)nc(OC3CCOCC3)nc2c1OCc1ccc(C(=O)N2CCC3(CC2)CN(Cc2ccc4c(c2)CN(C(=O)c2cc(C(C)C)c(O)cc2O)C4)C3)cc1` (atropisomer, axis not shown) [Example 10], on KRAS G12D, the “% degradation” value is 37%. Further, the IC50 in experiment [1] (Homo sapiens, ASPC1, 144 h) is 3.7 µM.

Take `Cc1c(F)cc2[nH]ncc2c1-c1c(C2CC2)cc2c(N3C[C@@H]4C[C@H]3CN4)nc(OC3CCOCC3)nc2c1OCc1ccc(C(=O)N2CCN(C3CCN(Cc4ccc5c(c4)CN(C(=O)c4cc(C(C)C)c(O)cc4O)C5)CC3)CC2)cc1` (atropisomer, axis not shown) [Example 11]: on KRAS G12D, the “% degradation” value was 51%. In experiment [1] (Homo sapiens, ASPC1, 144 h), the IC50 was 2.9 µM.

Turning to `Cc1c(F)cc2[nH]ncc2c1-c1c(C2CC2)cc2c(N3C[C@@H]4C[C@H]3CN4)nc(OC3CCOCC3)nc2c1OCc1ccc(C(=O)N2CCN(CC3CN(Cc4ccc5c(c4)CN(C(=O)c4cc(C(C)C)c(O)cc4O)C5)C3)CC2)cc1` (atropisomer, axis not shown) [Example 12], the “% degradation” value on KRAS G12D is reported as 20%. Further, in experiment [1] (Homo sapiens, ASPC1, 144 h), the IC50 is 3.5 µM.

Turning to `CO[C@@H](O)COc1nc(N(C)[C@H]2CCNC2)c2cc(C3CC3)c(-c3c(C)c(F)cc4[nH]ncc34)c(OCc3ccc(C(=O)N4CCN(C(=O)c5ccc6c(c5)CN(C(=O)c5cc(C(C)C)c(O)cc5O)C6)C[C@@H]4C)cc3)c2n1` (atropisomer, axis not shown) [Example 13], the “% degradation” value on KRAS G12D is 57%. Moreover, it took 2 µM to reach half-maximal inhibition in experiment [1] (Homo sapiens, ASPC1, 144 h) (IC50).

`Cc1c(F)cc2[nH]ncc2c1-c1c(C2CC2)cc2c(N3C[C@@H]4C[C@H]3CN4)nc(OC3CCOCC3)nc2c1OCc1ccc(CN2CCN(C(=O)c3ccc4c(c3)CN(C(=O)c3cc(C(C)C)c(O)cc3O)C4)CC2)cc1` (atropisomer, axis not shown) [Example 15]: the “% degradation” value on KRAS G12D was 17%. This compound also returned an IC50 in experiment [1] (Homo sapiens, ASPC1, 144 h) of 3.9 µM.

In experiment [1] (Homo sapiens, ASPC1, 144 h), `Cc1c(F)cc2[nH]ncc2c1-c1c(C2CC2)cc2c(N3C[C@@H]4C[C@H]3CN4)nc(OC3CCOCC3)nc2c1OCc1ccc(C(=O)N2CCN(CCCOc3ncc4c(n3)CCN(C(=O)c3cc(C(C)C)c(O)cc3O)C4)CC2)cc1` (atropisomer, axis not shown) [Example 19] displayed an IC50 of 2.3 µM.

For `Cc1c(F)cc2[nH]ncc2c1-c1c(C2CC2)cc2c(N3C[C@@H]4C[C@H]3CN4)nc(OC3CCOCC3)nc2c1OCc1ccc(C(=O)N2CCN(C(=O)c3ccc4c(c3)CN(C(=O)c3cc(C(C)C)c(O)cc3O)C4)CC2)cc1` (atropisomer, axis not shown; (M)) [Example 1, [5-(4-{4-[({(7M)-6-cyclopropyl-4-[(1S,4S)-2,5-diazabicyclo[2.2.1]heptan-2-yl]-7-(6-fluoro-5-methyl-1H-indazol-4-yl)-2-[(oxan-4-yl)oxy]quinazolin-8-yl}oxy)methyl]benzoyl)piperazine-1-carbonyl)-1,3-dihydro-2H-isoindol-2-yl][2,4-dihydroxy-5-(propan-2-yl)phenyl]methanone], the “% degradation” value on KRAS G12D is 43%. In experiment [1] (Homo sapiens, ASPC1, 144 h), the IC50 came out at 3.3 µM.

With `Cc1c(F)cc2[nH]ncc2c1-c1c(C2CC2)cc2c(N3C[C@@H]4C[C@H]3CN4)nc(OC3CCOCC3)nc2c1OCc1ccc(C(=O)N2C3CCC2CN(Cc2ccc4c(c2)CN(C(=O)c2cc(C(C)C)c(O)cc2O)C4)C3)cc1` [Example 9], half-maximal inhibition in experiment [1] (Homo sapiens, ASPC1, 144 h) (IC50) required 3.4 µM.

`CO[C@@H](C)COc1cc(O[C@H]2CCNC2)c2cc(C3CC3)c(-c3c(C)c(F)cc4[nH]ncc34)c(OCc3ccc(C(=O)N4CCN(C(=O)c5ccc6c(c5)CN(C(=O)c5cc(C(C)C)c(O)cc5O)C6)C[C@@H]4C)cc3)c2n1` [Example 16]: the “% degradation” value on KRAS G12D stood at 30%.

In the case of `Cc1c(F)cc2[nH]ncc2c1-c1c(C2CC2)cc2c(N3C[C@@H]4C[C@H]3CN4)nc(OC3CCOCC3)nc2c1OCc1ccc(C(=O)N2CCN(C(C)C(=O)c3ccc4c(c3)CN(C(=O)c3cc(C(C)C)c(O)cc3O)C4)CC2)cc1` (stereo partly shown) [Example 18], the “% degradation” value on KRAS G12D worked out at 20%. This compound registered an IC50 in experiment [1] (Homo sapiens, ASPC1, 144 h) of 7.4 µM.

Take “{4-[({(7M)-6-cyclopropyl-4-[(1S,4S)-2,5-diazabicyclo[2.2.1]heptan-2-yl]-7-(6-fluoro-5-methyl-1H-indazol-4-yl)-2-[(oxan-4-yl)oxy]quinazolin-8-yl}oxy)methyl]phenyl) {4-[(4-{3-[2,4-dihydroxy-5-(propan-2-yl)phenyl]-5-hydroxy-4H-1,2,4-triazol-4-yl)phenyl)methyl]piperazin-1-yl}methanone [Example 5]”: the “% degradation” value on KRAS G12D was 46%. The compound further returned an IC50 in experiment [1] of 2.2 µM.

These data come from patent US20250388569A1, “HETEROCYCLIC COMPOUND FOR INHIBITING AND/OR INDUCING DEGRADATION OF KRAS PROTEIN” (ASTELLAS PHARMA INC., priority 2022, published 2025).
